Experimental data published in patent publication US20240383856A1 (Zedira GmbH, priority 2021, published 2024).
Like-named read-outs stand apart in the source and are kept apart here.

Experiments:
[1] = target: T1, recombinant human transglutaminase 2 (Homo sapiens, UniProt P21980); experiment: Transglutaminase assay (DCC-assay): incorporation of dansylcadaverine into dimethylcasein; assay type: biochemical
T1 construct: purchased Zedira T022
T1 sequence (P21980 1-687): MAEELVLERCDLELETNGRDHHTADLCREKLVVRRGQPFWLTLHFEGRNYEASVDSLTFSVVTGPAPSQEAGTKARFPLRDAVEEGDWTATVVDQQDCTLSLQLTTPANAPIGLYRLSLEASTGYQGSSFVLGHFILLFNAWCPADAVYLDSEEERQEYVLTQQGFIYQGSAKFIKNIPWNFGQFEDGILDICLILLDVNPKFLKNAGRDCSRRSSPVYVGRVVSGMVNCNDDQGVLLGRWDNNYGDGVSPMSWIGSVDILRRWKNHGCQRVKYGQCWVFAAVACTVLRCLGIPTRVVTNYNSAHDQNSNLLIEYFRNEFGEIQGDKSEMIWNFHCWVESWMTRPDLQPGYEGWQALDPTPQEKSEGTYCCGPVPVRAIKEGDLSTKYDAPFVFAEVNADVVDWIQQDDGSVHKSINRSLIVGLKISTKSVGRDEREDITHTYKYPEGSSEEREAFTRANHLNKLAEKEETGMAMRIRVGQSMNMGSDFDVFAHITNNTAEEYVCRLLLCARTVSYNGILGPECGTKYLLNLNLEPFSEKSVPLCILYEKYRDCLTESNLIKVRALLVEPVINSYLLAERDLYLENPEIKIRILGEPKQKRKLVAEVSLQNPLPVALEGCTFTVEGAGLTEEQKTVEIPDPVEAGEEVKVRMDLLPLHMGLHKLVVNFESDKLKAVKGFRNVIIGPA
How it was run: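 IC50 is the inhibitor level that blocks 50% of initial activity. Activity is the fluorescence slope (λex 330, λem 500 nm) between 20 and 30 min of a 37 °C run, relative to a 2% DMSO control. The enzyme is recombinant human tissue transglutaminase, 10 nM final, tested against a 1:2 inhibitor dilution series in a pH 8.0 mix with 10 mM CaCl2, 10 mM glutathione, 16.7 µM dansylcadaverine and 4 µM N,N-dimethylcasein.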

[2] = Multiple-dosing PK study, tissue concentration in lung and liver; assay type: in vivo; conditions: mice, 200 mg/kg oral twice daily, after the eighth dose (four days)
Protocol: Additionally, in a multiple-dosing PK study, II-3 was orally administered to 3 mice with 200 mg/kg doses (dose volume 10 mL/kg) twice daily (12 h intervals). After the animals were sacrificed, the liver and lung were removed. The homogenates of the respective tissues were analyzed by LC-MS to determine the concentration of the compound. The tissue concentration in lung and liver after the eighth dose (four days) was 6,800 and 10,400 ng/g, respectively, showing that the compound reaches the tissue at pharmacological active concentration.

IC90 ([1]; TG2, table with the PK study): 180 nM
IC50 ([1]; TG2, table with the PK study, read-out: IC50): 23 nM
IC50 ([1]; recombinant human TG2 10 nM, dansylcadaverine incorporation into dimethylcasein, read-out: IC50 TG2): < 40 nM
tissue concentration in liver [2]: 10,400 ng/g
tissue concentration in lung [2]: 6,800 ng/g
SMILES: CNC(=O)C(=O)CC[C@H](NC(=O)c1oc2ccccc2c1C)C(=O)Nc1cccn(CC(=O)NC2C3CC4CC(C3)CC2C4)c1=O (stereo partly drawn) [II-3, (S)-N1-(1-(2-(2-adamantylamino)-2-oxoethyl)-2-oxo-1,2-dihydropyridin-3-yl)-N6-methyl-2-(3-methylbenzofuran-2-carboxamido)-5-oxohexanediamide]
